Results from PubChem BioAssay AID1963959 (Molecular Pharmacology Branch, DTP, NCI, 2024).

Test system: T-47D spheroids with HUVEC/MSC, viability
Assay: Anticancer human tumor T-47D cell line growth inhibition [PI3K];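 further: spheroids exposed to agents for seven days before reading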;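 on viability, T/C: percent of DMSO vehicle control luminescence so 100% = untreated growth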
Settings: for IC50: curve of first compound; for viability, T/C: stronger effect = lower value
Excerpt: Combinatorial screen of targeted agents with the PI3K inhibitors inavolisib, alpelisib, duvelisib, and copanlisib in multi-cell type tumor spheroids
A high-throughput screen of multi-cell type tumor spheroids was designed to identify active combinations of targeted small molecules and PI3K pathway inhibitors. Complex spheroids include a stromal component modeled by human endothelial cells (HUVEC) and fibroblasts modeled by human mesenchymal stem cells (MSCs). The concentration ranges selected for each drug and investigational agent were based upon clinically achievable concentrations if the clinical Cmax of the agent was known.
Compounds. The drugs and investigational agents: inavolisib (NSC800729), alpelisib (NSC765974), duvelisib (NSC772469), copanlisib (NSC816437), ipatasertib (NSC767898), afuresertib (NSC778305), talazoparib (NSC767125), sapanisertib (NSC764658), selumetinib (NSC741078), tovorafenib (DAY101, NSC766906), vemurafenib (NSC761431), ravoxertinib (NSC781343), sotorasib (NSC818433), MRTX1133 (NSC 836407), abemaciclib (NSC 768073), palbociclib (NSC758247), venetoclax (NSC 766270), SY5609 (NSC837396), enzalutamide (NSC755605), and darolutamide (NSC825331), were obtained from the National Cancer Institute (NCI) Developmental Therapeutics Program Chemical Repository. The FDA-approved anticancer drug set is available from the NCI Developmental Therapeutics Program. […] The stock solutions were prepared in dimethyl sulfoxide (DMSO, Sigma-Aldrich, St. Louis, MO, cat. D2650) at 800-fold the tested concentration and stored at -70 degrees C prior to their use. All drugs and investigational agents were tested over a range starting from a high concentration at or near the clinical Cmax and decreasing in half-log increments. If the clinical Cmax for an agent had not been determined, the highest concentration tested was 10 microM.
Cell Culture. All cells were maintained in an incubator at 37 degrees C and 5% CO2 with 95% humidity. The PDC lines were cultured according to standard operating procedures established by the NCI PDMR (https://pdmr.cancer.gov/sops/default.htm). All PDCs were thawed and cultured in Matrigel-coated flasks prepared with a working solution of 1X Ham's F-12 nutrient mix, without supplementation (Invitrogen, Waltham, MA, cat. 11765054), 100 U/mL penicillin-streptomycin (Invitrogen, cat. 15140122), and 2.5% Matrigel (Corning Inc., Corning, NY, cat. 354248) for the first three passages. The 354836-022-R-J1-PDC, 475296-252-R-J1-PDC, and 997726-040-R-J2-PDC lines were cultured in 6A media, which includes advanced DMEM/F-12 (Thermo Fisher Scientific, cat. 12634028), 10 mM HEPES (Thermo Fisher Scientific, cat. 15630080), 1X GlutaMAX supplement (Thermo Fisher Scientific, cat. 35050061), 0.1 mg/mL primocin (InvivoGen, San Diego, CA, cat. ant-pm-2), 10% defined fetal bovine serum, heat inactivated (HyClone Laboratories Inc., Logan, UT, cat. SH30070.03HI), 50% L-WRN conditioned media (ATCC, cat. CRL-3276), 1.25 mM N-Acetyl-L-cysteine (Sigma-Aldrich, cat. A9165), 10 mM nicotinamide (Sigma-Aldrich, cat. N0636), 1X B-27 supplement (Thermo Fisher Scientific, cat. 17504044), 1X N-2 supplement (Thermo Fisher Scientific, cat. 17502048), and 10 microM Y-27632 dihydrochloride (Tocris Bioscience, Bristol, United Kingdom, cat. 1254). The 624824-186-R-J2-PDC line was cultured in 6C/Colon 1B media, which includes all 6A media components plus 50 ng/mL human EGF recombinant protein (Thermo Fisher Scientific, cat. PHG0311). […]

[1] = second compound 0.0316 µM, first compound 0.0316 µM
[2] = second compound 0.0316 µM, first compound 0.1 µM
[3] = second compound 0.1 µM, first compound 0.0316 µM
[4] = second compound 0.1 µM, first compound 0.1 µM
[5] = second compound 0.316 µM, first compound 0.0316 µM
[6] = second compound 0.316 µM, first compound 0.1 µM
[7] = second compound 1 µM, first compound 0.0316 µM
[8] = second compound 1 µM, first compound 0.1 µM

## Cn1ncnc1[C@H]1c2n[nH]c(=O)c3cc(F)cc(c23)N[C@@H]1c1ccc(F)cc1 + COc1c(OCCCN2CCOCC2)ccc2c3n(c(=NC(=O)c4cnc(N)nc4)nc12)CCN3
Second compound 0.00316 µM
  IC50: > 100 nM
Second compound 0.01 µM
  IC50: > 100 nM
Second compound 0.0316 µM
  IC50: > 100 nM
Second compound 0.1 µM
  IC50: < 0.316 nM
Second compound 0.316 µM
  IC50: < 0.316 nM
Second compound 1 µM
  IC50: < 0.316 nM
Second compound 0.00316 µM, first compound 0.000316 µM
  viability, T/C: 102%
Second compound 0.00316 µM, first compound 0.001 µM
  viability, T/C: 87.4%
Second compound 0.00316 µM, first compound 0.00316 µM
  viability, T/C: 112%
Second compound 0.00316 µM, first compound 0.01 µM
  viability, T/C: 104%
Second compound 0.00316 µM, first compound 0.0316 µM
  viability, T/C: 109%
Second compound 0.00316 µM, first compound 0.1 µM
  viability, T/C: 101%
Second compound 0.01 µM, first compound 0.000316 µM
  viability, T/C: 114%
Second compound 0.01 µM, first compound 0.001 µM
  viability, T/C: 83.9%
Second compound 0.01 µM, first compound 0.00316 µM
  viability, T/C: 93.7%
Second compound 0.01 µM, first compound 0.01 µM
  viability, T/C: 79.3%
Second compound 0.01 µM, first compound 0.0316 µM
  viability, T/C: 99.5%
Second compound 0.01 µM, first compound 0.1 µM
  viability, T/C: 94.1%
Second compound 0.0316 µM, first compound 0.000316 µM
  viability, T/C: 72.9%
Second compound 0.0316 µM, first compound 0.001 µM
  viability, T/C: 72.8%
Second compound 0.0316 µM, first compound 0.00316 µM
  viability, T/C: 85%
Second compound 0.0316 µM, first compound 0.01 µM
  viability, T/C: 71.4%
[1]
  viability, T/C: 75.1%
[2]
  viability, T/C: 64.8%
Second compound 0.1 µM, first compound 0.000316 µM
  viability, T/C: 40.9%
Second compound 0.1 µM, first compound 0.001 µM
  viability, T/C: 47.6%
Second compound 0.1 µM, first compound 0.00316 µM
  viability, T/C: 41.2%
Second compound 0.1 µM, first compound 0.01 µM
  viability, T/C: 34.1%
[3]
  viability, T/C: 40.7%
[4]
  viability, T/C: 39%
Second compound 0.316 µM, first compound 0.000316 µM
  viability, T/C: 18.9%
Second compound 0.316 µM, first compound 0.001 µM
  viability, T/C: 20.8%
Second compound 0.316 µM, first compound 0.00316 µM
  viability, T/C: 15.2%
Second compound 0.316 µM, first compound 0.01 µM
  viability, T/C: 17.1%
[5]
  viability, T/C: 14.8%
[6]
  viability, T/C: 15.1%
Second compound 1 µM, first compound 0.000316 µM
  viability, T/C: 5.24%
Second compound 1 µM, first compound 0.001 µM
  viability, T/C: 6.61%
Second compound 1 µM, first compound 0.00316 µM
  viability, T/C: 7.38%
Second compound 1 µM, first compound 0.01 µM
  viability, T/C: 7.19%
[7]
  viability, T/C: 5.03%
[8]
  viability, T/C: 6.71%

## CC(C)NCC(C(=O)N1CCN(c2ncnc3c2C(C)CC3O)CC1)c1ccc(Cl)cc1 (centres undefined) + Cc1nc(NC(=O)N2CCCC2C(N)=O)sc1-c1ccnc(C(C)(C)C(F)(F)F)c1
Second compound 0.0316 µM
  IC50: > 10000 nM
Second compound 0.1 µM
  IC50: 7980 nM
Second compound 0.316 µM
  IC50: > 10000 nM
Second compound 1 µM
  IC50: 2120 nM
Second compound 3.16 µM
  IC50: 585 nM
Second compound 10 µM
  IC50: < 31.6 nM
[1]
  viability, T/C: 85.2%
[2]
  viability, T/C: 79.7%
Second compound 0.0316 µM, first compound 0.316 µM
  viability, T/C: 84.6%
Second compound 0.0316 µM, first compound 1 µM
  viability, T/C: 61.1%
Second compound 0.0316 µM, first compound 3.16 µM
  viability, T/C: 58.1%
Second compound 0.0316 µM, first compound 10 µM
  viability, T/C: 55.3%
[3]
  viability, T/C: 93.5%
[4]
  viability, T/C: 86.4%
Second compound 0.1 µM, first compound 0.316 µM
  viability, T/C: 81.1%
Second compound 0.1 µM, first compound 1 µM
  viability, T/C: 62.6%
Second compound 0.1 µM, first compound 3.16 µM
  viability, T/C: 58.1%
Second compound 0.1 µM, first compound 10 µM
  viability, T/C: 47.7%
[5]
  viability, T/C: 88.7%
[6]
  viability, T/C: 87.8%
Second compound 0.316 µM, first compound 0.316 µM
  viability, T/C: 73.1%
Second compound 0.316 µM, first compound 1 µM
  viability, T/C: 66%
Second compound 0.316 µM, first compound 3.16 µM
  viability, T/C: 49.8%
Second compound 0.316 µM, first compound 10 µM
  viability, T/C: 55.5%
[7]
  viability, T/C: 81.9%
[8]
  viability, T/C: 82.5%
Second compound 1 µM, first compound 0.316 µM
  viability, T/C: 79.1%
Second compound 1 µM, first compound 1 µM
  viability, T/C: 62.7%
Second compound 1 µM, first compound 3.16 µM
  viability, T/C: 43.1%
Second compound 1 µM, first compound 10 µM
  viability, T/C: 40.3%
Second compound 3.16 µM, first compound 0.0316 µM
  viability, T/C: 57.5%
Second compound 3.16 µM, first compound 0.1 µM
  viability, T/C: 57.5%
Second compound 3.16 µM, first compound 0.316 µM
  viability, T/C: 56.7%
Second compound 3.16 µM, first compound 1 µM
  viability, T/C: 44.1%
Second compound 3.16 µM, first compound 3.16 µM
  viability, T/C: 37%
Second compound 3.16 µM, first compound 10 µM
  viability, T/C: 37.2%
Second compound 10 µM, first compound 0.0316 µM
  viability, T/C: 37.4%
Second compound 10 µM, first compound 0.1 µM
  viability, T/C: 32.9%
Second compound 10 µM, first compound 0.316 µM
  viability, T/C: 34.6%
Second compound 10 µM, first compound 1 µM
  viability, T/C: 27%
Second compound 10 µM, first compound 3.16 µM
  viability, T/C: 22.1%
Second compound 10 µM, first compound 10 µM
  viability, T/C: 28.6%
